Test [1] has as its target human Arginine Vasopressin Receptor 1b (AVPR1b) (Homo sapiens (Human), UniProt P47901). Kind of test: Vasopressin V1B receptor antagonist assay (AVP-evoked calcium, FLIPR, CHO-AVPR1b cells). Format: cell-based. Here is the method:
The purpose of the assay is to determine the inhibitory effect of synthesized compounds on the Vasopressin V1b receptor. The assay was performed in Chinese Hamster Ovary (CHO) cells expressing the human Arginine Vasopressin Receptor 1b (AVPR1b). Arginine Vasopressin (AVP) evokes an increase in intracellular calcium in CHO-AVPR1b cells which is measured in a fluorescence assay on the FLIPR^TETRA using calcium sensitive dyes. Test compounds were assessed for their ability to affect the magnitude of the response to AVP, with antagonists showing a concentration-dependent reduction in the AVP-mediated fluorescence.
CHO-AVPR1b cells were maintained in routine culture in T175 Flasks at 37° C., 5% CO2. The growth medium consisted of Ham's F12 media supplemented with 10% v/v fetal bovine serum, 1× non-essential amino acids, and 0.4 mg/ml Geneticin G418.
Cells were harvested from T175 flasks when they were 80-90% confluent by first washing the cell monolayer with PBS and then dissociated using trypsin 0.05%/EDTA (3 mL for a T175 Flask). The flasks were incubated at room temperature until the cells detached. To the cell suspension, 10 ml of growth media was added and the cell density determined using the Vi-Cell automated cell counter. The cells were spun at 1000 rpm for 3 minutes, then the supernatant was carefully removed and discarded. The cell pellet was re-suspended at 6.0e^5 cells/ml in growth media. 25 μL of cells in growth media was dispensed into each well (15,000 cells per well) of a poly-D-lysine coated black, clear bottomed, 384-well plate. The plates were incubated at 37° C., 5% CO2 overnight.
At the start of each assay day, the potency of AVP is assessed and an EC80 concentration determined for subsequent compound profiling. Assays were performed using a two-step addition protocol on the FLIPR^TETRA; first addition of 5 μl of control or test compound at 10× final in assay buffer with 15 min incubation at 37° C., 5% CO2 followed by 10 μl of AVP at 6× final concentration in assay buffer. Changes in fluorescence were monitored for 3 min after both additions on the FLIPR^TETRA using 470-495 nm excitation and 515-575 nm emission wavelengths. The assay buffer consisted of HBSS (+Ca/+Mg) supplemented with 20 mM HEPES, and for the preparation of the AVP agonist only, 0.1% w/v bovine serum albumin. The assay was initiated by the removal of growth media from the cells and replacement with 45 μl of Calcium-6 dye (Molecular Devices) prepared at 1× in assay buffer. Cells were loaded with dye for 60-90 min at 37° C., 5% CO2 before initiation of the FLIPR^TETRA protocol. […] For compound profiling, test compounds were first serially diluted in DMSO (10-point curve, 1:3 dilutions) then diluted 33.3-fold in assay buffer prior to addition to the dye loaded cells on the FLIPR^TETRA. At the end of the incubation period 10 μl of AVP in assay buffer containing 0.1% BSA was added at the previously determined EC80 concentration.
In-plate controls for the assay include a Nelivaptan concentration-response curve as the reference V1b antagonist and an AVP concentration-response curve to confirm the reproducibility of the EC80 used for the compound challenge.

For test [2], the target named is human Arginine Vasopressin Receptor V2 (AVPR2) (Homo sapiens (Human), UniProt P30518). Kind of test: Vasopressin V2 receptor antagonist assay (cAMP TR-FRET, 1321N1 cells). Format: cell-based. Here is the method: The purpose of the assay was to determine the inhibitory effect of synthesized compounds on the Vasopressin receptor 2. […] Arginine Vasopressin (AVP) evokes an increase in intracellular cAMP in these cells which is measured in a TR-FRET assay using a Europium cAMP tracer and ULight labelled antibody reagents contained in a LANCE Ultra cAMP kit (Perkin Elmer #TRF0263). […] Test compounds were assessed for their ability to affect the magnitude of the response to AVP, with antagonists showing a concentration-dependent decrease in the AVP-mediated reduction in TR-FRET signal.
cAMPZen V2 assay ready cells were thawed at 37° C. and resuspended directly from frozen in 9 ml growth medium consisting of DMEM supplemented with 10% v/v fetal bovine serum, 1× non-essential amino acids, and 1 mM sodium pyruvate. Cells were spun at 1000 rpm for 3 minutes and the supernatant was carefully removed and discarded. The pellet was resuspended in 5 ml stimulation buffer and the cell density determined using the Vi-Cell automated cell counter. The cell suspension was diluted to a 0.2×10^6/ml suspension ready for plating. […] Stimulation buffer consisted of HBSS (+Ca/+Mg) supplemented with 5 mM HEPES, 0.1% BSA stabiliser and 0.5 mM IBMX.
At the start of each assay day the potency of AVP was assessed and an EC80 concentration determined for subsequent compound profiling. Assays were performed by first an addition of 2.5 μl of control or test compound at 4× final concentration in stimulation buffer followed by 2.5 μl of AVP at 4× final concentration in stimulation buffer. After a 1 hour reaction, detection reagents were added by first an addition of 5 μl EU-cAMP tracer, followed by 5 μl ULight-anti-cAMP both diluted as per the manufacturer's instructions. […] For compound profiling, test compounds were dispensed by the Labcyte Echo (10-point curve, 1:3 dilutions) in a target 0.1 μl volume then diluted 750-fold in stimulation buffer containing 3% DMSO prior to addition to the cells. At the end of the incubation period, 2.5 μl of AVP in stimulation buffer was added at the previously determined EC80 concentration.
A general note: TR-FRET usually uses a lanthanide donor and a delayed reading to cut background.

Read-outs that look alike come from different tables or passages of the source. A value given as a limit tells only on which side of the number the result lay.

human Arginine Vasopressin Receptor V2 (AVPR2), sequence (P30518 whole entry): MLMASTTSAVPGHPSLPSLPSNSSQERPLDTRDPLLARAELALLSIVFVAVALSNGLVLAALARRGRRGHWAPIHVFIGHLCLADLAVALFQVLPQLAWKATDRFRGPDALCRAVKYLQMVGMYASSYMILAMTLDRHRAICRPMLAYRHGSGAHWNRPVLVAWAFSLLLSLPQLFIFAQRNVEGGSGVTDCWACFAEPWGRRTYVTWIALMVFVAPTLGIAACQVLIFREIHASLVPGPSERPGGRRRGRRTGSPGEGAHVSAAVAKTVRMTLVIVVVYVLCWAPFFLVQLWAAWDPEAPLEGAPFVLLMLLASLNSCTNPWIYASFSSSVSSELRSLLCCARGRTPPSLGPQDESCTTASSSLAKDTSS
human Arginine Vasopressin Receptor 1b (AVPR1b), sequence (P47901 whole entry): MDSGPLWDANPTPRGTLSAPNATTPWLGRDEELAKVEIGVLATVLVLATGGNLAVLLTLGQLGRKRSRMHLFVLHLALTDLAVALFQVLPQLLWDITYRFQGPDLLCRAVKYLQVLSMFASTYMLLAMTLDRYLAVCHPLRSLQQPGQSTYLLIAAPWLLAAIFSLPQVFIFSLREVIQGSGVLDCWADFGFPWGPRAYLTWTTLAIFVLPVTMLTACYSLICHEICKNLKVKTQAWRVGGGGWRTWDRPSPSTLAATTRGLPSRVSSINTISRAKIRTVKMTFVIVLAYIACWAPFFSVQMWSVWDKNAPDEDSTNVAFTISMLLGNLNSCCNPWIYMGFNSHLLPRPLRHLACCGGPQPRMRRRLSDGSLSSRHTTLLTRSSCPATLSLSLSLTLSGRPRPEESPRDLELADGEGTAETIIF

With `COC(=O)N1Cc2cc(Cl)ccc2-n2c(C3CC4(C3)CN(c3ccc(F)cn3)C4)nnc2C1C` (single isomer, unassigned) [142A], the half-inhibitory concentration (IC50) in test [1] and in test [2] was more than 1000 nM each time.
For `COC(=O)N1Cc2cc(Cl)ccc2-n2c(C3CC4(C3)CN(c3ccc(F)cn3)C4)nnc2C1C` (single isomer, unassigned) [Cpd 142B], the half-inhibitory concentration (IC50) in test [1] and in test [2] was more than 1000 nM throughout.
As to `CC(C)OC(=O)N1Cc2cc(Cl)ccc2-n2c(C3CC4(C3)CN(c3ccc(F)cn3)C4)nnc2C1C` (single isomer, unassigned) [Cpd 163A], the IC50 in test [1] and in test [2] was more than 1000 nM each time.
Turning to `COC(=O)N1Cc2cc(Cl)ccc2-n2c(C3CC4(C3)CN(c3cnccn3)C4)nnc2C1C` (single isomer, unassigned) [Cpd 165A], the IC50 in test [1] and in test [2] was more than 1000 nM each time.
Take `COC(=O)N1Cc2cc(Cl)ccc2-n2c(C3CC4(C3)CN(c3ncccn3)C4)nnc2C1C` (single isomer, unassigned) [Cpd 166A]: the 50% inhibitory concentration (IC50) in test [1] and in test [2] was more than 1000 nM throughout.
With `CC(C)OC(=O)N1Cc2cc(Cl)ccc2-n2c(C3CC4(C3)CN(c3ncccn3)C4)nnc2C1C` (single isomer, unassigned) [Cpd 167A], the concentration for half-maximal inhibition (IC50) in test [1] and in test [2] was more than 1000 nM each time.
For `CCOC(=O)N1Cc2cc(Cl)ccc2-n2c(C3CC4(C3)CN(c3ncccn3)C4)nnc2C1C` (single isomer, unassigned) [Cpd 168A], the IC50 in test [1] and in test [2] was more than 1000 nM in each case.
In the case of `CCOC(=O)N1Cc2cc(Cl)ccc2-n2c(C3CC4(C3)CN(c3ccc(F)cn3)C4)nnc2C1C` (single isomer, unassigned) [Cpd 169A], the IC50 in test [1] and in test [2] was more than 1000 nM throughout.
In the case of `COC(=O)N1Cc2cc(Cl)ccc2-n2c(C3CC4(C3)CN(c3ncc(F)cn3)C4)nnc2C1C` (single isomer, unassigned) [Cpd 170A], the 50% inhibitory concentration (IC50) (in general, the concentration that inhibits the measured activity by half) in test [1] is more than 1000 nM; in test [2], 500 to 1000 nM.
In the same order, the values of `CC1c2nnc(C3CC4(C3)CN(c3ncccn3)C4)n2-c2ccc(Cl)cc2CN1C(=O)OC1CC1` (single isomer, unassigned) [Cpd 171A] are more than 1000 nM and more than 1000 nM.
For `CC1c2nnc(C3CC4(C3)CN(c3ncccn3)C4)n2-c2ccc(Cl)cc2CN1C(=O)OC1CC1` (single isomer, unassigned) [Cpd 171B], the half-inhibitory concentration (IC50) in test [1] and in test [2] was more than 1000 nM throughout.
For `CC1c2nnc(C3CC4(C3)CN(c3ccc(F)cn3)C4)n2-c2ccc(Cl)cc2CN1C(=O)C1(F)CC1` (single isomer, unassigned) [Cpd 174A], the IC50 in test [1] and in test [2] was more than 1000 nM throughout.
As for `CC1c2nnc(C3CC4(C3)CN(c3ccc(F)cn3)C4)n2-c2ccc(Cl)cc2CN1C(=O)C(C)(C)F` (single isomer, unassigned) [Cpd 178A], the IC50 in test [1] was more than 1000 nM; in test [2], 100 to 500 nM.
For the compound `CC1c2nnc(C3CC4(C3)CN(c3ccc(F)cn3)C4)n2-c2ccc(Cl)cc2CN1C` (single isomer, unassigned) [Cpd 179A], the IC50 in test [1] and in test [2] was more than 1000 nM in each case.
Consider `CC1c2nnc(C3CC4(C3)CN(c3ccccn3)C4)n2-c2ccc(Cl)cc2CN1C(=O)C1(F)CC1` (single isomer, unassigned) [Cpd 181A], for which the 50% inhibitory concentration (IC50) in test [1] was more than 1000 nM; in test [2], 100 to 500 nM.
Turning to `CC1c2nnc(C3CC4(C3)CN(c3ccc(F)cn3)C4)n2-c2ccc(Cl)cc2CN1C(=O)OC1CC1` (single isomer, unassigned) [Cpd 191A], the IC50 in test [1] and in test [2] was more than 1000 nM throughout.
On to `CC1c2nnc(C3CC4(C3)CN(c3ncc(F)cn3)C4)n2-c2ccc(Cl)cc2CN1C(=O)OC1CC1` (single isomer, unassigned) [Cpd 192A], for which the half-maximal inhibitory concentration (IC50) in test [1] and in test [2] was more than 1000 nM each time.
Consider `CC(C)OC(=O)N1Cc2cc(Cl)ccc2-n2c(C3CC4(C3)CN(c3ncc(F)cn3)C4)nnc2C1C` (single isomer, unassigned) [Cpd 201A], for which the IC50 in test [1] and in test [2] was more than 1000 nM in each case.
`CC1c2nnc(C3CC4(C3)CN(c3ncccn3)C4)n2-c2ccc(Cl)cc2CN1C(=O)OC(CF)CF` (single isomer, unassigned) [Cpd 202A]: the IC50 in test [1] and in test [2] was more than 1000 nM throughout.
With `CC1c2nnc(C3CC4(C3)CN(c3ccc(F)cn3)C4)n2-c2ccc(Cl)cc2CN1C(=O)OC(CF)CF` (single isomer, unassigned) [Cpd 203A], the IC50 was more than 1000 nM in test [1] and 500 to 1000 nM in test [2].
With `CN1Cc2cc(Cl)ccc2-n2c(nnc2[C@H]2CC[C@H](Oc3ccccn3)CC2)C1` [balovaptan, reference compound], the IC50 in test [1] (in vitro antagonist assay, reference compounds) was more than 1000 nM.
As for `CN1Cc2cc(Cl)ccc2-n2c(nnc2C2CC3(C2)CN(c2ccc(F)cn2)C3)C1` [compound 1, 8-chloro-1-(2-(5-fluoropyridin-2-yl)-2-azaspiro[3.3]heptan-6-yl)-5-methyl-5,6-dihydro-4H-benzo[f][1,2,4]triazolo[4,3-a][1,4]diazepine], the concentration for half-maximal inhibition (IC50) in test [1] and in test [2] was more than 1000 nM throughout.
As to `CN1Cc2cc(Cl)ccc2-n2c(nnc2C2CC3(C2)CN(c2ccccn2)C3)C1` [compound 2], the IC50 in test [1] and in test [2] was more than 1000 nM throughout.
`CN1Cc2cc(Cl)ccc2-n2c(nnc2C2CC3(C2)CN(c2cnccn2)C3)C1` [compound 3]: the IC50 in test [1] and in test [2] was more than 1000 nM throughout.
`CN1Cc2cc(Cl)ccc2-n2c(nnc2C2CC3(C2)CN(c2ncccc2F)C3)C1` [compound 4]: the half-inhibitory concentration (IC50) in test [1] and in test [2] was more than 1000 nM in each case.
With `CN1Cc2cc(Cl)ccc2-n2c(nnc2C2CC3(C2)CN(c2cccc(F)n2)C3)C1` [compound 8], the IC50 in test [1] and in test [2] was more than 1000 nM each time.
For `CN1Cc2cc(Cl)ccc2-n2c(nnc2C2CC3(C2)CN(C(=O)C2CC2)C3)C1` [compound 28], the IC50 in test [1] and in test [2] was more than 1000 nM throughout.
As to `COCCN1Cc2cc(Cl)ccc2-n2c(nnc2C2CC3(C2)CN(c2ccccn2)C3)C1` [compound 39, 8-chloro-5-(2-methoxyethyl)-1-(2-(pyridin-2-yl)-2-azaspiro[3.3]heptan-6-yl)-5,6-dihydro-4H-benzo[f][1,2,4]triazolo[4,3-a][1,4]diazepine], the IC50 in test [1] and in test [2] was more than 1000 nM each time.
Regarding `Clc1ccc2c(c1)CN(C1CCC1)Cc1nnc(C3CC4(C3)CN(c3ccccn3)C4)n1-2` [compound 41], the IC50 is more than 1000 nM in test [1] and less than 100 nM in test [2].

The values above are taken from US11186577B2, “Vasopressin receptor antagonists and products and methods related thereto” (BlackThorn Therapeutics, Inc., priority 2017, dated 2021).
